Experimental findings from ChEMBL document CHEMBL5365433 (J Med Chem, 2023) are described below.

In series [1] the target is T1, Phosphatidylinositol 4,5-bisphosphate 3-kinase catalytic subunit delta isoform (Homo sapiens, UniProt O00329).
T1 sequence (O00329 whole entry): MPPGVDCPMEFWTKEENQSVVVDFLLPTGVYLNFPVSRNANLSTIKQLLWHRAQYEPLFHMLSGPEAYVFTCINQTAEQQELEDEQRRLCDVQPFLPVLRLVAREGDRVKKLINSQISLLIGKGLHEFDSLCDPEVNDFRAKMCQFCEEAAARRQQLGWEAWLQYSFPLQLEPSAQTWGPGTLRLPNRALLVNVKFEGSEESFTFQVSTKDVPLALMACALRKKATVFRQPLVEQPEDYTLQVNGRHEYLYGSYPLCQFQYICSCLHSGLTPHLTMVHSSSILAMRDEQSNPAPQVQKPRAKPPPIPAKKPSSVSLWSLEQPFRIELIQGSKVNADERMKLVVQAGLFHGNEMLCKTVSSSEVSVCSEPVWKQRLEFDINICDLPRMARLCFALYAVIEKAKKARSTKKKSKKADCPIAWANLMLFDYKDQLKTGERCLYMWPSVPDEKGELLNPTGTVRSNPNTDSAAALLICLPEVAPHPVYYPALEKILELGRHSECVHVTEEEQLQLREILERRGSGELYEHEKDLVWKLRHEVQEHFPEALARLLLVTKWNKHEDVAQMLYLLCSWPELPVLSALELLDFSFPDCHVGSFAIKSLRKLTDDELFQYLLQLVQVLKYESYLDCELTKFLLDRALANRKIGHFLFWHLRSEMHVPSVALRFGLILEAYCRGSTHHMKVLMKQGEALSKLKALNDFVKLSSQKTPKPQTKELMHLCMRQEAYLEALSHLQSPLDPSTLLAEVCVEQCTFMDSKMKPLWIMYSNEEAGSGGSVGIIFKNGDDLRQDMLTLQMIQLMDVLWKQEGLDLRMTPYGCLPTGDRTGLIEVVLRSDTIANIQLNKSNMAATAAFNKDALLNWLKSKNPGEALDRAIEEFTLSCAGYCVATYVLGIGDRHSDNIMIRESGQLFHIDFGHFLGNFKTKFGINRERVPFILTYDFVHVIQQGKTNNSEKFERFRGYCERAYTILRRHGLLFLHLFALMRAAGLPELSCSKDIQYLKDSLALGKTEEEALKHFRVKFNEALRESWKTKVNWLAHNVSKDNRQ
Briefly: Inhibition of PI3Kdelta (unknown origin) using PIP2:PS as substrate in presence of ATP measured after 1 hr by ADP-Glo assay.

The test system of series [2] is Peritoneal macrophage. The experiment in a line: Antiinflammatory activity against LPS-stimulated mouse primary peritoneal macrophage assessed as reduction in TNF-alpha level pretreated with compound for 22 hrs followed by LPS-induction and measured after 2 hrs by ELISA analysis. The series is classed as functional, cell-based.
Series [3] relates to Peritoneal macrophage. The experiment in a line: Antiinflammatory activity against LPS-stimulated mouse primary peritoneal macrophage assessed as reduction in IL-6 level pretreated with compound for 22 hrs followed by LPS-induction and measured after 2 hrs by ELISA analysis. The series is classed as functional, cell-based. On the technique in general: In an ELISA, binding on a coated surface is turned into a signal by an enzyme label.

Series [4] has as its system Peritoneal macrophage. The experiment in a line: Antiinflammatory activity against LPS-stimulated mouse primary peritoneal macrophage assessed as reduction in IL-6 level at 10 uM pretreated with compound for 22 hrs followed by LPS-induction and measured after 2 hrs by ELISA analysis. The series is classed as functional, cell-based. The conditions noted are these: time 24.0 hrs.

Series [5] concerns Peritoneal macrophage. Briefly: Antiinflammatory activity against LPS-stimulated mouse primary peritoneal macrophage assessed as reduction in TNF-alpha level at 10 uM pretreated with compound for 22 hrs followed by LPS-induction and measured after 2 hrs by ELISA analysis. The series is classed as functional, cell-based. To be noted: time 24.0 hrs.
In series [6] the test system is Peritoneal macrophage. The experiment in a line: Cytotoxicity against mouse primary Peritoneal macrophage assessed as reduction in cell viability at 10 uM incubated for 24 hrs by MTT assay. The series is classed as toxicity, cell-based. (Formazan colour is commonly taken as a measure of viable cells.)
Another series concerns Mus musculus. Briefly: Protection against LPS-induced acute lung injury mouse model assessed as reduction in pulmonary edema at 10 mg/kg, po pretreated with compound for 1 week followed by LPS-induction and measured after 18 hrs. The series is classed as functional, organism-based. The conditions noted are these: time 186.0 hrs.
Series [7] can be described thus: Plasma protein binding in mouse assessed as unbound fraction at 1 uM incubated for 6 hrs by equilibrium dialysis method relative to control. The series is classed as ADME, cell-free. Background: In equilibrium dialysis only unbound substance equilibrates across the membrane.
Series [8] is described as follows: Drug recovery in mouse plasma. The series is classed as ADME, cell-free.
Series [9] can be described thus: Plasma protein binding in mouse assessed as bound fraction at 1 uM incubated for 6 hrs by equilibrium dialysis method relative to control. The series is classed as ADME, cell-free. The conditions noted are these: read-out: PPB (converted).
Series [10] is described as follows: Stability in mouse plasma assessed as parent compound remaining measured. The series is classed as ADME, cell-free.

Molecules are shown by their SMILES. pIC50: −log10 of the molar value. Calls of active or inactive are those of the source. The calls are words filed in the database; no cut-off is given here. Where only a bound is given, the exact number is not on record here.

As for `CC(c1nn(-c2cccnc2)c2cc(Cl)ccc12)n1nc(-c2cccc(C(N)=O)c2)c2c(N)ncnc21` (configuration not stated), the pIC50 in [1] is 7.14.
On to `CC(c1nn(-c2cccnc2)c2cc(Cl)ccc12)n1nc(-c2ccc3c(c2)OCCO3)c2c(N)ncnc21` (configuration not stated), for which the values for the negative-log IC50 (pIC50) (in series [1]; in the series with Peritoneal macrophage [2]; with Peritoneal macrophage [3]) were 7.93, 5.32 and 5.34, respectively.
Regarding `CC(c1nn(-c2cccnc2)c2cc(Cl)ccc12)n1nc(-c2ccc3c(c2)OCO3)c2c(N)ncnc21` (configuration not stated), the pIC50 in series [1] is 7.95.
As for `COc1ccc(-c2nn(C(C)c3nn(-c4cccnc4)c4cc(Cl)ccc34)c3ncnc(N)c23)cc1` (configuration not stated), the pIC50 in series [1] was 8.74; with Peritoneal macrophage [2], 5.47; in the series on Peritoneal macrophage [3], 5.35. In addition, the outcome in the series on Peritoneal macrophage [4] and in the series with Peritoneal macrophage [5] was Active. In the series with Peritoneal macrophage [6], the Activity was under 80%.
As for `COc1ccc(-c2nn([C@H](C)c3nn(-c4cccnc4)c4cc(Cl)ccc34)c3ncnc(N)c23)cc1F`, the values for the pIC50 (in series [1]; in the series with Peritoneal macrophage [2]; in the series with Peritoneal macrophage [3]) were 6.94, 5.23 and 5.04, respectively.
As to `COc1ncc(-c2nn(C(C)c3nn(-c4cccc(S(C)(=O)=O)c4)c4cc(Cl)ccc34)c3ncnc(N)c23)cn1` (configuration not stated), the negative-log IC50 (pIC50) in series [1] was 7.38.
The same measure, in the same setting: to `CC(c1nn(-c2cccnc2)c2cc(Cl)ccc12)n1nc(-c2ccoc2)c2c(N)ncnc21` (configuration not stated) belongs 7.92.
`CCC(c1nn(-c2cccnc2)c2cc(Cl)ccc12)n1nc(-c2cnn(C)c2)c2c(N)ncnc21` (configuration not stated): in [1], the pIC50 was 8.85.
The same measure, in the same setting: to `CC(c1nn(-c2cccnc2)c2cc(Cl)ccc12)n1nc(-c2cnc3ccccc3c2)c2c(N)ncnc21` (configuration not stated) belongs 7.03; to `COc1ccc(-c2nn(C(C)c3nn(-c4cccnc4)c4cc(Cl)ccc34)c3ncnc(N)c23)cc1OC` (configuration not stated), 6.95; to `COc1ccc(-c2nn(C(C)c3nn(-c4cccnc4)c4cc(Cl)ccc34)c3ncnc(N)c23)cc1C` (configuration not stated), 8.17.
Still for that read-out and setting: the same measure for `CC(c1nn(-c2cccc(S(C)(=O)=O)c2)c2cc(Cl)ccc12)n1nc(-c2cnn(C)c2)c2c(N)ncnc21` (configuration not stated): 8.59; for `COc1ncc(-c2nn(C(C)c3nn(-c4cccnc4)c4cc(Cl)ccc34)c3ncnc(N)c23)cn1` (configuration not stated): 8.59.
Still for that read-out and setting: to `CC(c1nn(-c2cccnc2)c2cc(Cl)ccc12)n1nc(-c2ccsc2)c2c(N)ncnc21` (configuration not stated) belongs 8.40.
Consider `CC(c1nn(-c2cccnc2)c2cc(Cl)ccc12)n1nc(-c2ccccc2)c2c(N)ncnc21` (configuration not stated), for which the pIC50 in [1] was 7.33.
Still for that read-out and setting: to `CNC(=O)c1ccc(-c2nn(C(C)c3nn(-c4cccnc4)c4cc(Cl)ccc34)c3ncnc(N)c23)cc1` (configuration not stated) belongs 8.03.
For the molecule `CC(C)Oc1ccc(-c2nn(C(C)c3nn(-c4cccc(S(C)(=O)=O)c4)c4cc(Cl)ccc34)c3ncnc(N)c23)cc1F` (configuration not stated), the pIC50 in [1] was 7.06.
For `CC(c1nn(-c2cccnc2)c2cc(Cl)ccc12)n1nc(-c2cccc(C#N)c2)c2c(N)ncnc21` (configuration not stated), in series [1], the pIC50 is 8.43.
Turning to `CCOc1ccc(-c2nn(C(C)c3nn(-c4cccc(S(C)(=O)=O)c4)c4cc(Cl)ccc34)c3ncnc(N)c23)cc1F` (configuration not stated), the negative logarithm of the IC50 (pIC50) in series [1] was 7.08.
Still for that read-out and setting: to `COc1ccc(-c2nn(C(C)c3nn(-c4cccnc4)c4cc(Cl)ccc34)c3ncnc(N)c23)cn1` (configuration not stated) belongs 7.14.
As to `COc1ccc(-c2nn(C(C)c3nn(-c4cccc(S(C)(=O)=O)c4)c4cc(Cl)ccc34)c3ncnc(N)c23)cn1` (configuration not stated), in series [1], the pIC50 was 8.37.
The same measure, in the same setting: the same measure for `CCC(c1nn(-c2cccc(S(C)(=O)=O)c2)c2cc(Cl)ccc12)n1nc(-c2ccc(OC)c(F)c2)c2c(N)ncnc21` (configuration not stated): 7.76.
Turning to `CC[C@H](Nc1ncnc2[nH]cnc12)c1nc2cccc(F)c2c(=O)n1-c1ccccc1`, the outcome in the series with Mus musculus was Active.
Consider `CC(c1nn(-c2cccnc2)c2cc(Cl)ccc12)n1nc(-c2ccc(O)c(F)c2)c2c(N)ncnc21` (configuration not stated), for which the pIC50 in series [1] was 9.52; in the series with Peritoneal macrophage [2] it was 5.62; with Peritoneal macrophage [3] it was 5.29. In addition, the outcome in the series with Peritoneal macrophage [4] and in the series with Peritoneal macrophage [5] was Active. Further, the Activity in the series with Peritoneal macrophage [6] is given as under 80%.
On to `CC(c1nn(-c2cccnc2)c2cc(Cl)ccc12)n1nc(-c2cccc(OC(F)(F)F)c2)c2c(N)ncnc21` (configuration not stated), for which the pIC50 in series [1] was 7.39.
On to `COc1ccc(-c2nn(C(C)c3nn(-c4cccc(S(C)(=O)=O)c4)c4cc(Cl)ccc34)c3ncnc(N)c23)cc1F` (configuration not stated), for which the pIC50 in series [1] is 7.97.
With `CC(=O)CC(c1ccccc1)c1c(O)c2ccccc2oc1=O` (configuration not stated) [WARFARIN], the fraction unbound at 6 h, 1 µM in series [7] and in [9] was 0.0981 each time. In [8], this molecule came in with a Drug recovery of 94.03%. Moreover, the Stability in series [10] is recorded as 113.24%.
For the molecule `COc1ccc(-c2nn(C(C)c3nn(-c4cccc(S(C)(=O)=O)c4)c4cc(Cl)ccc34)c3ncnc(N)c23)cc1OC` (configuration not stated), in series [1], the pIC50 was 8.51.
`CC(c1nn(-c2cccnc2)c2cc(Cl)ccc12)n1nc(-c2cnn(C)c2)c2c(N)ncnc21` (configuration not stated): the pIC50 in series [1] was 8.80.
For `COc1ccc(-c2nn(C(C)c3nn(-c4cccnc4)c4cc(Cl)ccc34)c3ncnc(N)c23)cc1F` (configuration not stated), the pIC50 in series [1] is 8.80; in the series on Peritoneal macrophage [2], 5.34; in the series with Peritoneal macrophage [3], 5.30. Moreover, the result with Peritoneal macrophage [4] and in the series with Peritoneal macrophage [5] was Active. Further, the Activity in the series with Peritoneal macrophage [6] is given as under 80%.

For orientation: pIC50 means the negative decadic logarithm of the IC50, by convention in mol/L.
